The text below walks through data of patent US20200155526A1, “TARGETING LYSINE DEMETHYLASES (KDMS) AS A THERAPEUTIC STRATEGY FOR DIFFUSE LARGE B-CELL LYMPHOMA” (THE CHILDREN'S MEDICAL CENTER CORPORATION, priority 2017, published 2020).

One experiment deals with DLBCL cell lines. Kind of experiment: Sensitivity of DLBCL cell lines (CTG viability). The class given is cell-based. As to the method:
For the Cell Titer Glo assays (CTG), between 3000-10,000 cells were plated in a 96 well plate (in triplicates). The cells were allowed to settle for 24 hours before either small molecule(s) or DMSO was added at indicated concentrations. The treatment was performed for indicated days (preferably 2 days for a “snap-shot” experiments). CTG signal was used to assess viability after 2 days according to manufacturer's protocol (Promega Corporation; Madison, Wis.). For OCI-Ly1 sensitivity assay, OCI-Ly1 cells were grown at a density of 1-3×10^6 cells/mL and 3000-10,000 cells were plated in a 96-well plate (in triplicates). The cells were allowed to settle for 24 hours before either the indicated small molecule(s) or DMSO was added at indicated concentrations. CTG signal was used to assess viability after 2 days according to manufacturer's protocol (Promega Corporation; Madison, Wis.). Small molecules used in each experiment are stated in the respective figures along with their concentrations. Results are shown in FIGS. 10, 11, 13, 14, 15, 16 and 22.

Experiment [1] relates to Ly1 cells. Kind of experiment: In vivo Ly1 model, Kaplan Meier survival. As to conditions: mice, compared to vehicle treated mice, FIG. 19. The source says:
Mice administered Ly1 cells without the luciferase reporter were monitored post administration, and fraction surviving was plotted (FIG. 19) using the Kaplan Meier Survival Analysis of Graphpad Prism.

The next experiment concerns OCI-Ly1 cell lines. Nature of the experiment: Transcriptomics (RNA-seq, GSEA) of JIB04-treated cells. The format is cell-based, human. How it is done: (§1) Three independent cultures of OCI-Ly1 cell lines were grown till the cultures achieved the cell numbers of approximately 1-1.5*10^6 cells/ml, and then cells were treated with either DMSO or two different JIB04 concentrations (150 nM and 500 nM). RNA was isolated using Trizol method, followed by library preparation using NEBUltraII kit (New England Biolabs; Ipswich, Mass.). After high throughput sequencing of the libraries, FastQc was used for filtering and quality control of the reads followed by read alignment to hg19 assembly of the human genome. Reads were counted by TopHat, differential gene expression analysis was performed in Rstudio. GSEA was performed using the desktop client from the Broad Institute, and the GSEA output was visualized using Rstudio.

For experiment [2], the system named is Ikaros family members (IKZF1, IKZF3). Nature of the experiment: Immunoblotting of Ikaros family members and BCR signaling components. The format is cell-based. As to conditions: JIB04 100 nM or 500 nM, FIG. 20. As to the method:
Effect of JIB-04 on Ikaros family members and proximal components of BCR signaling pathway was assayed as follows: One million cells growing under indicated conditions (DMSO or JIB04 treatment; 100 nM or 500 nM) were pelleted by centrifugation at 1000 rpm for 5 min, and then resuspended in RIPA buffer with protease and phosphatase inhibitors. The cell suspension was left on ice for 20 min, and then sonicated using Diagenode water-bath sonicator (15 s. on; 30 s. off, for 15 cycles at max power). After sonication, cell extract was spun at 12000 rpm for 20 min, and the supernatant was collected for immunoblotting. Immunoblotting was performed using standard methods, and the blots were probed using antibodies recognizing indicated proteins.
A general note: Immunoblotting shows a protein as a band on a membrane.

Another experiment deals with lymphoma cell lines. Nature of the experiment: Annexin V staining apoptosis assay. The class given is cell-based. As to conditions: FIG. 4A. How it is done: APC-Annexin V was obtained from BD Pharmingen (Franklin Lakes, N.J.), and Annexin V staining was performed as described by the manufacturer.
The subject of the next experiment is OCI-Ly1. Kind of experiment: OCI-Ly1 sensitivity assay (CTG viability). The class given is cell-based, human. Particulars: for OCI-Ly1 cell viability, Jumonji-inhibitors: OCI-Ly1, range tested, FIG. 5. How it is done:
(§2) For the Cell Titer Glo assays (CTG), between 3000-10,000 cells were plated in a 96 well plate (in triplicates). The cells were allowed to settle for 24 hours before either small molecule(s) or DMSO was added at indicated concentrations. The treatment was performed for indicated days (preferably 2 days for a “snap-shot” experiments). CTG signal was used to assess viability after 2 days according to manufacturer's protocol (Promega Corporation; Madison, Wis.).
When performing the comparative test of GSK126 and JIB04, daily readings were taken using the manufacturer's protocol for CTG signal after day 2 (for JIB04), and after day 5 (for GSK126).
For OCI-Ly1 sensitivity assay, OCI-Ly1 cells were grown at a density of 1-3×10^6 cells/mL and 3000-10,000 cells were plated in a 96-well plate (in triplicates). The cells were allowed to settle for 24 hours before either the indicated small molecule(s) or DMSO was added at indicated concentrations. CTG signal was used to assess viability after 2 days according to manufacturer's protocol (Promega Corporation; Madison, Wis.). Small molecules used in each experiment are stated in the respective figures along with their concentrations. Results are shown in FIGS. 10, 11, 13, 14, 15, 16 and 22.

The next experiment has as its system THP-1. Nature of the experiment: Cell Titer Glo (CTG) viability, JIB04 dose response. The format is cell-based. As to conditions: Homo sapiens, 48 h; THP-1 (leukemia), 2 days treatment, FIG. 2; read-out: effective EC50. How it is done:
as §2
For orientation: Cellular ATP, detected with luciferase, serves as a proxy for viable cell number.

The test system of the next experiment is Farage. The experiment is described as above. The class given is cell-based. As to conditions: 48 h; Farage (DLBCL), 2 days treatment, FIG. 2. How it is done: as §2
For a further experiment, the system named is SUDHL5. Described as above. Particulars: Homo sapiens, SU-DHL-5, 48 h; SUDHL5 (DLBCL), 2 days treatment, FIG. 2. The class given is cell-based. How it is done: as §2
A further experiment concerns HL-60. Described as above. The format is cell-based. As to conditions: Homo sapiens, 48 h; HL-60 (leukemia), 2 days treatment, FIG. 2; read-out: effective EC50. As to the method: as §2
The test system of a further experiment is Toledo. The description is as above. The format is cell-based. Particulars: Homo sapiens, 48 h; Toledo (DLBCL), 2 days treatment, FIG. 2. How it is done: as §2
Another experiment concerns MV4-11. Described as above. The format is cell-based. As to conditions: Homo sapiens, 48 h; MV4-11 (leukemia), 2 days treatment, FIG. 2; read-out: effective EC50. How it is done: as §2
The subject of the next experiment is DB. The experiment is described as above. The format is cell-based. Particulars: Homo sapiens, 48 h; DB (DLBCL), 2 days treatment, FIG. 2. How it is done: as §2
Another experiment deals with Jurkat. The description is as above. As to conditions: Homo sapiens, 48 h; Jurkat (leukemia), 2 days treatment, FIG. 2; read-out: effective EC50. The class given is cell-based. As to the method: as §2
The nature of experiment [3]: Cell cycle analysis by propidium iodide staining. The class given is cell-based, human. Particulars: different dosage and times, FIG. 7C. From the text: Propidium Iodide Flow Cytometry Kit from Abcam was used to perform cell cycle analysis using propidium iodide staining according to manufacturer's protocol.
A further experiment concerns PARP. Nature of the experiment: Production of cleaved PARP. The class given is cell-based. As to conditions: FIG. 4B.
The test system of a further experiment is canonical Wnt signaling. Nature of the experiment: Transcriptomics / ChIP-seq GSEA of Wnt signaling. As to conditions: FIGS. 21A-21C. The format is cell-based. As to the method:
as §1
Cells were fixed with 1% formaldehyde for 10 minutes at room temperature before termination with 0.125 M glycine. Cells were then lysed in ChIP buffer (0.6% SDS, 10 mM EDTA, and 50 mM Tris-HCl, pH 8.1) and cross-linked chromatin was sonicated to obtain DNA fragments of 300-800 bp. […] Libraries were quantified by Qubit (Invitrogen), and sequenced using a HiSeq 2000 (Illumina) to generate 50 bp single end reads.

For experiment [4], the system named is Ly1 cells. Nature of the experiment: In vivo Ly1 luciferase model, bioluminescence imaging. Particulars: NSG mice, 30 mg/kg, 3 times weekly, intra-peritoneal, 2 weeks post treatment, FIGS. 18A-18B. How it is done:
For in vivo studies, Ly1 cells, with a luciferase reporter or […], were administered to Nod/SCID− mice (NSG) (6-8 weeks) were used for tail vein injection. Mice administered the Ly1 cells comprising the luciferase reporter were imaged every week after injection using the IVIS Spectrum In Vivo Imaging System (Perkin Elmer). […] JIB04 was administered three times a week, for two weeks, via intra-peritoneal injection in a mix of 90% sesame oil and 10% DMSO mix (vehicle). Mice were imaged each week and images from pre-treatment and 2-weeks after start of treatment with 30 mg/kg (3× a week) JIB04 are shown in FIG. 18A (pre-treatment) and FIG. 18B (post-treatment).

[5] abbreviates: JIB04 150 nM and 500 nM, FIG. 7A.

One may read the EC50 as the concentration that produces a half-maximal response.

On to `Cc1cc(/C=C/c2ccc3cc(N(C)C)ccc3[n+]2C)c(C)n1-c1ccccc1` [Pyrvinium], for which the “sensitivity of DLBCL cell lines” value in the experiment with DLBCL cell lines (FIG. 22) is given as “sensitive to Pyrvinium”.

For `Clc1ccc(N/N=C(\c2ccccc2)c2ccccn2)nc1` [JIB04, 5-Chloro-2-[(E)-2-[phenyl(pyridin-2-yl)methylidene]hydrazin-1-yl]pyridine], the survival entry with Ly1 cells [1] is “increased survival as compared to vehicle treated mice”. For the same molecule, in the experiment with DLBCL cell lines (GCB and ABC type DLBCL), the “sensitivity of GCB and ABC type DLBCL lines” value is given as “both of those lines are sensitive to JIB04”. Further, the CDKN1A expression result in the experiment with OCI-Ly1 cell lines (FIGS. 7B and 7C) is “significantly upregulated”. Further, the “downregulated pathways (GSEA)” value in the experiment with OCI-Ly1 cell lines (setting [5]) was “downregulation of “E2F targets” and “Myc-targets””. The “upregulated pathways (GSEA)” value with OCI-Ly1 cell lines (setting [5]) was “upregulation of “apoptosis” and “p53”-pathways”. For the same molecule, the “levels of Ikaros family members” value in experiment [2] is “downregulates levels of members of Ikaros family, such as IKZF1 and IKZF3”. For the same molecule, the annexin-V positive cells result in the experiment on lymphoma cell lines is “increase in annexin-V positive cells in a dose-dependent manner”. For the same molecule, the EC50 in the experiment on OCI-Ly1 (Homo sapiens, 48 h, OCI-Ly1 (DLBCL), 2 days treatment, FIG. 2) is under 250 nM; in the experiment with THP-1, about 1000 nM; in the experiment on Farage, under 250 nM; in the experiment on SUDHL5, under 250 nM; in the experiment with HL-60, about 1000 nM; with Toledo, under 250 nM. The concentration for a half-maximal effect (EC50) in the experiment on MV4-11 is about 1000 nM; with DB, under 250 nM; with Jurkat it was about 1000 nM. Further, the “OCI-Ly1 cell viability, Jumonji-inhibitors” value with OCI-Ly1 is “decreased OCI-Ly1 cell viability significantly”. Also, in the experiment on OCI-Ly1 (combined with Ibrutinib, compared to JIB04 alone, FIG. 16), the “JIB04 potency (CTG signal relative to DMSO) when combined with Ibrutinib” value is on record as “increased”. In addition, the “reduction of CTG signal, E isomer versus Z isomer” value with OCI-Ly1 (trans configuration (E isomer) relative to cis configuration (Z isomer), FIG. 13) was “more is effective at reducing CTG signal relative to the cis configuration (Z isomer)”. Further, the cell cycle result in experiment [3] is on record as “cell cycle arrest”. In the experiment on PARP, the “production of cleaved PARP” value was “increased production of cleaved PARP”. Further, the “canonical Wnt signaling” value in the experiment with canonical Wnt signaling is given as “inhibits canonical Wnt signaling”. Moreover, in the experiment on Ly1 cells [4], the tumor burden entry was “reduction in tumor burden within a short window of treatment”.

With `CN(C)CCCNC(=O)c1ccc(-c2cc(O)c3ncccc3c2)cc1` [ML324], the “OCI-Ly1 cell viability, Jumonji-inhibitors” value with OCI-Ly1 was “only JIB04 decreased OCI-Ly1 cell viability significantly”.

For `O=[N+]([O-])c1cc([N+](=O)[O-])c(/C=C/c2ccc(Cl)c(Cl)c2)cc1/C=C/c1ccc(Cl)c(Cl)c1` [NSC636819], the “OCI-Ly1 cell viability, Jumonji-inhibitors” value with OCI-Ly1 was “only JIB04 decreased OCI-Ly1 cell viability significantly”.

For `CC(C)c1c(-c2ccccc2)[nH]c2c(C#N)cnn2c1=O` [CPI-455], in the experiment on OCI-Ly1, the “OCI-Ly1 cell viability, Jumonji-inhibitors” value is listed as “only JIB04 decreased OCI-Ly1 cell viability significantly”.

With `CCOC(=O)CCNc1cc(N2CCc3ccccc3CC2)nc(-c2ccccn2)n1` [GSK-J4], the “OCI-Ly1 cell viability, Jumonji-inhibitors” value in the experiment on OCI-Ly1 was “only JIB04 decreased OCI-Ly1 cell viability significantly”.

With `CCOC(=O)c1ccnc(CNCC(=O)N(CC)CCN(C)C)c1` [KDM5-C70], the “OCI-Ly1 cell viability, Jumonji-inhibitors” value in the experiment on OCI-Ly1 was “only JIB04 decreased OCI-Ly1 cell viability significantly”.
